From patent US12295936B2, “Immunomodulating urea azalides” (Zoetis Services LLC, priority 2020, dated 2025)

System: BRD pathogens, M. haemolytica and P. multocida
Experiment: MIC screening panel of BRD pathogens (antibacterial / non-antibacterial)
Conditions: read-out: antibacterial / non-antibacterial (MIC for the BRD pathogens)

Compound	MIC [µg/mL]
CC[C@H]1OC(=O)[C@H](C)[C@@H](O)[C@H](C)[C@@H](O[C@@H]2O[C@H](C)C[C@H](N(C)C(=O)Nc3ccc(C#N)cc3)[C@H]2O)[C@](C)(O)C[C@@H](C)CN[C@H](C)[C@@H](O)[C@]1(C)O [Example A-9, 3-(4-cyanophenyl)-1-((2S,3R,4S,6R)-2-(((2R,3S,4R,5R,8R,10R,11R,12S,13S,14R)-2-ethyl-3,4,10,13-tetrahydroxy-3,5,8,10,12,14-hexamethyl-15-oxo-1-oxa-6-azacyclopentadecan-11-yl)oxy)-3-hydroxy-6-methyltetrahydro-2H-pyran-4-yl)-1-methylurea]	> 64
CC[C@H]1OC(=O)[C@H](C)[C@@H](O[C@H]2C[C@@](C)(OC)[C@](O)(CN(C)C)[C@H](C)O2)[C@H](C)[C@@H](O[C@@H]2O[C@H](C)C[C@H](N(C)C(=O)Nc3ccccc3)[C@H]2O)[C@](C)(O)C[C@@H](C)CN[C@H](C)[C@@H](O)[C@]1(C)O [Example H-2, 1-((2S,3R,4S,6R)-2-(((2R,3S,4R,5R,8R,10R,11R,12S,13S,14R)-13-(((2R,4R,5S,6S)-5-((dimethylamino)methyl)-5-hydroxy-4-methoxy-4,6-dimethyltetrahydro-2H-pyran-2-yl)oxy)-2-ethyl-3,4,10-trihydroxy-3,5,8,10,12,14-hexamethyl-15-oxo-1-oxa-6-azacyclopentadecan-11-yl)oxy)-3-hydroxy-6-methyltetrahydro-2H-pyran-4-yl)-1-methyl-3-phenylurea]	> 64
CCCNC[C@]1(O)[C@H](C)O[C@@H](O[C@H]2[C@H](C)[C@@H](O[C@@H]3O[C@H](C)C[C@H](N(C)C(=O)Nc4ccccc4Cl)[C@H]3O)[C@](C)(O)C[C@@H](C)CN[C@H](C)[C@@H](O)[C@](C)(O)[C@@H](CC)OC(=O)[C@@H]2C)C[C@@]1(C)OC [Example H-80, 3-(2-chlorophenyl)-1-((2S,3R,4S,6R)-2-(((2R,3S,4R,5R,8R,10R,11R,12S,13S,14R)-2-ethyl-3,4,10-trihydroxy-13-(((2R,4R,5S,6S)-5-hydroxy-4-methoxy-4,6-dimethyl-5-((propylamino)methyl)tetrahydro-2H-pyran-2-yl)oxy)-3,5,8,10,12,14-hexamethyl-15-oxo-1-oxa-6-azacyclopentadecan-11-yl)oxy)-3-hydroxy-6-methyltetrahydro-2H-pyran-4-yl)-1-methylurea]	> 64
CC[C@H]1OC(=O)[C@H](C)[C@@H](O[C@H]2C[C@@](C)(OC)[C@](O)(CNCCCn3ccccc3=O)[C@H](C)O2)[C@H](C)[C@@H](O[C@@H]2O[C@H](C)C[C@H](N(C)C(=O)N(C)c3ccccc3)[C@H]2O)[C@](C)(O)C[C@@H](C)CN[C@H](C)[C@@H](O)[C@]1(C)O [Example H-47, 1-((2S,3R,4S,6R)-2-(((2R,3S,4R,5R,8R,10R,11R,12S,13S,14R)-2-ethyl-3,4,10-trihydroxy-13-(((2R,4R,5S,6S)-5-hydroxy-4-methoxy-4,6-dimethyl-5-(((3-(2-oxopyridin-1(2H)-yl)propyl)amino)methyl)tetrahydro-2H-pyran-2-yl)oxy)-3,5,8,10,12,14-hexamethyl-15-oxo-1-oxa-6-azacyclopentadecan-11-yl)oxy)-3-hydroxy-6-methyltetrahydro-2H-pyran-4-yl)-1,3-dimethyl-3-phenylurea]	> 64
CC[C@H]1OC(=O)[C@H](C)[C@@H](O[C@H]2C[C@@](C)(OC)[C@@H](O)[C@H](C)O2)[C@H](C)[C@@H](O[C@@H]2O[C@H](C)C[C@H](N(C)C(=O)NC3CCCCC3)[C@H]2O)[C@](C)(O)C[C@@H](C)CN(C)[C@H](C)[C@@H](O)[C@]1(C)O [Example B-10, 3-cyclohexyl-1-((2S,3R,4S,6R)-2-(((2R,3S,4R,5R,8R,10R,11R,12S,13S,14R)-2-ethyl-3,4,10-trihydroxy-13-(((2R,4R,5S,6S)-5-hydroxy-4-methoxy-4,6-dimethyltetrahydro-2H-pyran-2-yl)oxy)-3,5,6,8,10,12,14-heptamethyl-15-oxo-1-oxa-6-azacyclopentadecan-11-yl)oxy)-3-hydroxy-6-methyltetrahydro-2H-pyran-4-yl)-1-methylurea]	> 64
CCCNC[C@]1(O)[C@H](C)O[C@@H](O[C@H]2[C@H](C)[C@@H](O[C@@H]3O[C@H](C)C[C@H](N(C)C(=O)Nc4ccccc4F)[C@H]3O)[C@](C)(O)C[C@@H](C)CN[C@H](C)[C@@H](O)[C@](C)(O)[C@@H](CC)OC(=O)[C@@H]2C)C[C@@]1(C)OC [Example H-82, 1-((2S,3R,4S,6R)-2-(((2R,3S,4R,5R,8R,10R,11R,12S,13S,14R)-2-ethyl-3,4,10-trihydroxy-13-(((2R,4R,5S,6S)-5-hydroxy-4-methoxy-4,6-dimethyl-5-((propylamino)methyl)tetrahydro-2H-pyran-2-yl)oxy)-3,5,8,10,12,14-hexamethyl-15-oxo-1-oxa-6-azacyclopentadecan-11-yl)oxy)-3-hydroxy-6-methyltetrahydro-2H-pyran-4-yl)-3-(2-fluorophenyl)-1-methylurea]	> 64
CC[C@H]1OC(=O)[C@H](C)[C@@H](O)[C@H](C)[C@@H](O[C@@H]2O[C@H](C)C[C@H](N(C)C(=O)Nc3ccc(C(F)(F)F)cc3)[C@H]2O)[C@](C)(O)C[C@@H](C)CN[C@H](C)[C@@H](O)[C@]1(C)O [Example A-15, 1-((2S,3R,4S,6R)-2-(((2R,3S,4R,5R,8R,10R,11R,12S,13S,14R)-2-ethyl-3,4,10,13-tetrahydroxy-3,5,8,10,12,14-hexamethyl-15-oxo-1-oxa-6-azacyclopentadecan-11-yl)oxy)-3-hydroxy-6-methyltetrahydro-2H-pyran-4-yl)-1-methyl-3-(4-(trifluoromethyl)phenyl)urea]	> 64
CCCNC[C@]1(O)[C@H](C)O[C@@H](O[C@H]2[C@H](C)[C@@H](O[C@@H]3O[C@H](C)C[C@H](N(C)C(=O)Nc4cccc(F)c4)[C@H]3O)[C@](C)(O)C[C@@H](C)CN[C@H](C)[C@@H](O)[C@](C)(O)[C@@H](CC)OC(=O)[C@@H]2C)C[C@@]1(C)OC [Example H-85, 1-((2S,3R,4S,6R)-2-(((2R,3S,4R,5R,8R,10R,11R,12S,13S,14R)-2-ethyl-3,4,10-trihydroxy-13-(((2R,4R,5S,6S)-5-hydroxy-4-methoxy-4,6-dimethyl-5-((propylamino)methyl)tetrahydro-2H-pyran-2-yl)oxy)-3,5,8,10,12,14-hexamethyl-15-oxo-1-oxa-6-azacyclopentadecan-11-yl)oxy)-3-hydroxy-6-methyltetrahydro-2H-pyran-4-yl)-3-(3-fluorophenyl)-1-methylurea]	> 64
CC[C@H]1OC(=O)[C@H](C)[C@@H](O)[C@H](C)[C@@H](O[C@@H]2O[C@H](C)C[C@H](N(C)C(=O)Nc3cccc(C(F)(F)F)c3)[C@H]2O)[C@](C)(O)C[C@@H](C)CN[C@H](C)[C@@H](O)[C@]1(C)O [Example A-10, 1-((2S,3R,4S,6R)-2-(((2R,3S,4R,5R,8R,10R,11R,12S,13S,14R)-2-ethyl-3,4,10,13-tetrahydroxy-3,5,8,10,12,14-hexamethyl-15-oxo-1-oxa-6-azacyclopentadecan-11-yl)oxy)-3-hydroxy-6-methyltetrahydro-2H-pyran-4-yl)-1-methyl-3-(3-(trifluoromethyl)phenyl)urea]	> 64
CCCNC[C@]1(O)[C@H](C)O[C@@H](O[C@H]2[C@H](C)[C@@H](O[C@@H]3O[C@H](C)C[C@H](N(C)C(=O)Nc4ccc(Cl)cc4)[C@H]3O)[C@](C)(O)C[C@@H](C)CN[C@H](C)[C@@H](O)[C@](C)(O)[C@@H](CC)OC(=O)[C@@H]2C)C[C@@]1(C)OC [Example H-84, 3-(4-chlorophenyl)-1-((2S,3R,4S,6R)-2-(((2R,3S,4R,5R,8R,10R,11R,12S,13S,14R)-2-ethyl-3,4,10-trihydroxy-13-(((2R,4R,5S,6S)-5-hydroxy-4-methoxy-4,6-dimethyl-5-((propylamino)methyl)tetrahydro-2H-pyran-2-yl)oxy)-3,5,8,10,12,14-hexamethyl-15-oxo-1-oxa-6-azacyclopentadecan-11-yl)oxy)-3-hydroxy-6-methyltetrahydro-2H-pyran-4-yl)-1-methylurea]	> 64
CC[C@H]1OC(=O)[C@H](C)[C@@H](O)[C@H](C)[C@@H](O[C@@H]2O[C@H](C)C[C@H](N(C)C(=O)Nc3cnn(C)c3)[C@H]2O)[C@](C)(O)C[C@@H](C)CN[C@H](C)[C@@H](O)[C@]1(C)O [Example A-6, 1-((2S,3R,4S,6R)-2-(((2R,3S,4R,5R,8R,10R,11R,12S,13S,14R)-2-ethyl-3,4,10,13-tetrahydroxy-3,5,8,10,12,14-hexamethyl-15-oxo-1-oxa-6-azacyclopentadecan-11-yl)oxy)-3-hydroxy-6-methyltetrahydro-2H-pyran-4-yl)-1-methyl-3-(1-methyl-1H-pyrazol-4-yl)urea]	> 64
CC[C@H]1OC(=O)[C@H](C)[C@@H](O)[C@H](C)[C@@H](O[C@@H]2O[C@H](C)C[C@H](N(C)C(=O)Nc3cccc(C#N)c3)[C@H]2O)[C@](C)(O)C[C@@H](C)CN[C@H](C)[C@@H](O)[C@]1(C)O [Example A-11, 3-(3-cyanophenyl)-1-((2S,3R,4S,6R)-2-(((2R,3S,4R,5R,8R,10R,11R,12S,13S,14R)-2-ethyl-3,4,10,13-tetrahydroxy-3,5,8,10,12,14-hexamethyl-15-oxo-1-oxa-6-azacyclopentadecan-11-yl)oxy)-3-hydroxy-6-methyltetrahydro-2H-pyran-4-yl)-1-methylurea]	> 64
CC[C@H]1OC(=O)[C@H](C)[C@@H](O)[C@H](C)[C@@H](O[C@@H]2O[C@H](C)C[C@H](N(C)C(=O)Nc3ccccn3)[C@H]2O)[C@](C)(O)C[C@@H](C)CN[C@H](C)[C@@H](O)[C@]1(C)O [Example A-3, 1-((2S,3R,4S,6R)-2-(((2R,3S,4R,5R,8R,10R,11R,12S,13S,14R)-2-ethyl-3,4,10,13-tetrahydroxy-3,5,8,10,12,14-hexamethyl-15-oxo-1-oxa-6-azacyclopentadecan-11-yl)oxy)-3-hydroxy-6-methyltetrahydro-2H-pyran-4-yl)-1-methyl-3-(pyridin-2-yl)urea]	> 64
